Assay results from US20260256789A1, “METHODS FOR TREATMENT OF CANCER” (Frontier Medicines Corporation, priority 2022, published 2026).

Target: T1, KRAS G12C (GMPPNP-loaded) and cRAF Ras-binding domain (Homo sapiens, UniProt P01116, C118S/C51S/C80L/G12C)
T1 construct: truncated version comprising amino acids 1-169
Assay: Inhibition of KRAS G12C and cRAF binding (AlphaScreen)
Conditions: KRAS G12C preloaded with GTP analogue GMPPNP, 2 hours preincubation
Method in brief: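 Compounds (10-point, 1:3 from 50 μM; 2% DMSO) were incubated 2 h at room temperature with 0.5 nM GMPPNP-preloaded truncated Cys-light KRAS G12C, then 60-90 min with 0.75 nM GST-RBD of cRAF and AlphaScreen beads. Signal at 570 nm gave IC50 by 4-parameter regression, and a biotin-AviTag-GST counter assay excluded interference with the AlphaScreen readout.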

T1 sequence (P01116 1-169 isoform P01116-2 G12C/C51S/C80L/C118S): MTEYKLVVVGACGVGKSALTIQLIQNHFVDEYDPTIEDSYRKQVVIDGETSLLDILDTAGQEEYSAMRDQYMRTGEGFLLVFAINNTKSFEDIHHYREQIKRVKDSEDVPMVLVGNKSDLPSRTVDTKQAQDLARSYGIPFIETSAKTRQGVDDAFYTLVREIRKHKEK

SMILES	IC50 [nM]
C=CC(=O)N1CC[C@@H](N(C)c2nc(OC[C@@]34CCCN3C[C@H](F)C4)nc3c(F)c(-c4nc(N)cc(C)c4C)ncc23)C1 [Example 171]	100 to 500
Cc1cc(/C=C/C(=O)N2CC(CN(C)c3nc(OC[C@@]45CCCN4C[C@H](F)C5)nc4c(F)c(-c5cc(O)cc(Cl)c5C5CC5)ncc34)C2)nc(C)n1 [Example 204]	100 to 500
Cc1nsc(/C=C/C(=O)N2CC[C@@H](N(C)c3nc(OC[C@@]45CCCN4C[C@H](F)C5)nc4c3C[C@H](C)[C@@H](c3nc(N)cc(C)c3C(F)(F)F)C4)C2)n1 [Example 88, (E)-1-((R)-3-(((6S,7S)-7-(6-amino-4-methyl-3-(trifluoromethyl)pyridin-2-yl)-2-(((2R,7aS)-2-fluorotetrahydro-1H-pyrrolizin-7a(5H)-yl)methoxy)-6-methyl-5,6,7,8-tetrahydroquinazolin-4-yl)(methyl)amino)pyrrolidin-1-yl)-3-(3-methyl-1,2,4-thiadiazol-5-yl)prop-2-en-1-one]	≥ 500
Cc1noc(/C=C/C(=O)N2CC[C@@H](N(C)c3nc(OC[C@@]45CCCN4C[C@H](F)C5)nc4c(F)c(-c5nc(N)cc(C)c5C(F)(F)F)ncc34)C2)n1 [Example 55, (E)-1-((R)-3-((7-(6-amino-4-methyl-3-(trifluoromethyl)pyridin-2-yl)-8-fluoro-2-(((2R,7aS)-2-fluorotetrahydro-1H-pyrrolizin-7a(5H)-yl)methoxy)pyrido[4,3-d]pyrimidin-4-yl)(methyl)amino)pyrrolidin-1-yl)-3-(3-methyl-1,2,4-oxadiazol-5-yl)prop-2-en-1-one]	< 10
Cc1noc(/C=C/C(=O)N2CC[C@@H](N(C)c3nc(OC[C@@]45CCCN4C[C@H](F)C5)nc4c3C[C@H](C)[C@@H](c3nc(N)cc(C)c3C(F)(F)F)C4)C2)n1 [Example 81, (E)-1-((R)-3-(((6S,7S)-7-(6-amino-4-methyl-3-(trifluoromethyl)pyridin-2-yl)-2-(((2R,7aS)-2-fluorotetrahydro-1H-pyrrolizin-7a(5H)-yl)methoxy)-6-methyl-5,6,7,8-tetrahydroquinazolin-4-yl)(methyl)amino)pyrrolidin-1-yl)-3-(3-methyl-1,2,4-oxadiazol-5-yl)prop-2-en-1-one]	100 to 500
Cc1nsc(/C=C/C(=O)N2CC[C@@H](N(C)c3nc(OC[C@@]45CCCN4C[C@H](F)C5)nc4c(F)c(-c5nc(N)cc(C)c5C(F)(F)F)ncc34)C2)n1 [Example 164]	10 to 100
C=CC(=O)N1CC[C@H](O)[C@@H](N(C)c2nc(OC[C@@]34CCCN3C[C@H](F)C4)nc3c(F)c(-c4cccc(Cl)c4C4CC4)ncc23)C1 [Example 237]	≥ 500
Cc1ccc(N)nc1-c1ncc2c(N(C)[C@@H]3CCN(C(=O)/C=C/c4nc(C(C)C)no4)C3)nc(OC[C@@]34CCCN3C[C@H](F)C4)nc2c1F [Example 86]	10 to 100
CN(c1nc(OCC23CCCN2CCC3)nc2c(F)c(-c3nc(N)cc4cccc(F)c34)ncc12)[C@@H]1CCN(C#N)C1 [Example 70, (R)-3-((7-(3-amino-8-fluoroisoquinolin-1-yl)-8-fluoro-2-((hexahydro-1H-pyrrolizin-7a-yl)methoxy)pyrido[4,3-d]pyrimidin-4-yl)(methyl)amino)pyrrolidine-1-carbonitrile]	100 to 500
C=CC(=O)N1CC[C@@H](N(C)c2nc(OCC34CCCN3CCC4)nc3c2CC(C)C(c2nc(N)cc(C)c2C(F)(F)F)C3)C1 (some centres unmarked) [Example 98]	100 to 500
C=CC(=O)N1CC[C@@H](N(C)c2nc(OC[C@@]34CCCN3C[C@H](F)C4)nc3c(F)c(-c4cc(O)cc(Cl)c4C4CC4)ncc23)C1 [Example 12, 1-((R)-3-((7-(3-chloro-2-cyclopropyl-5-hydroxyphenyl)-8-fluoro-2-(((2R,7aS)-2-fluorotetrahydro-1H-pyrrolizin-7a(5H)-yl)methoxy)pyrido[4,3-d]pyrimidin-4-yl)(methyl)amino)pyrrolidin-1-yl)prop-2-en-1-one]	< 10
Cc1cc(N)nc(-c2ncc3c(N(C)[C@@H]4CCN(C(=O)/C=C/[C@H]5CCN5C)C4)nc(OC[C@@]45CCCN4C[C@H](F)C5)nc3c2F)c1C(F)(F)F (single isomer, unassigned) [Example 26]	< 10
Cc1noc(/C=C/C(=O)N2CC[C@@H](N(C)c3nc(OCC45CCCN4CCC5)nc4c3C[C@@H](C)[C@H](c3nc(N)cc(C)c3C(F)(F)F)C4)C2)n1 (single isomer, unassigned) [Compound 9]	100 to 500
C=CC(=O)N1CC[C@@H](N(C)c2nc(OC[C@@]34CCCN3C[C@H](F)C4)nc3c(F)c(-c4nc(N)cc5cccc(Cl)c45)ncc23)C1 [Example 74, 1-((R)-3-((7-(3-amino-8-chloroisoquinolin-1-yl)-8-fluoro-2-(((2R,7aS)-2-fluorohexahydro-1H-pyrrolizin-7a-yl)methoxy)pyrido[4,3-d]pyrimidin-4-yl)(methyl)amino)pyrrolidin-1-yl)prop-2-en-1-one]	10 to 100
C=CC(=O)N1CC[C@@H](N(C)c2nc(OC[C@@]34CCCN3C[C@H](F)C4)nc3c(F)c(-c4scnc4C)ncc23)C1 [Example 183]	≥ 500
C=CC(=O)N1CC(CN(C)c2nc(OC[C@@]34CCCN3C[C@H](F)C4)nc3c(F)c(-c4nc(N)cc(C)c4C)ncc23)C1 [Example 146, 1-(3-(((7-(6-amino-3,4-dimethylpyridin-2-yl)-8-fluoro-2-(((2R,7aS)-2-fluorotetrahydro-1H-pyrrolizin-7a(5H)-yl)methoxy)pyrido[4,3-d]pyrimidin-4-yl)(methyl)amino)methyl)azetidin-1-yl)prop-2-en-1-one]	≥ 500
CN(C)CC#CC(=O)N1CC(CN(C)c2nc(OC[C@@]34CCCN3C[C@H](F)C4)nc3c(F)c(-c4nc(N)cc5cccc(Cl)c45)ncc23)C1 [Example 110]	10 to 100
CN(c1nc(OC[C@@]23CCCN2C[C@H](F)C3)nc2c(F)c(-c3cccc(Cl)c3C3CC3)ncc12)[C@@H]1CCN(C(=O)/C=C/CN2CC[C@H](F)C2)C1 [Example 238]	10 to 100
Cc1noc(/C=C/C(=O)N2CC[C@@H](N(C)c3nc(OCC45CCCN4CCC5)nc4c3C[C@@H](C)[C@H](c3nc(N)cc(C)c3C(F)(F)F)C4)C2)n1 [Example 124]	100 to 500
C=CC(=O)N1CC[C@@H](N(C)c2nc(OC[C@@]34CCCN3C[C@H](F)C4)nc3c(F)c(-c4cccc(OC(F)F)c4C4CC4)ncc23)C1 [Example 187]	≥ 500
C=CC(=O)N1CC[C@@H](N(C)c2nc(OC[C@@]34CCCN3C[C@H](F)C4)nc3c(F)c(-c4cccc(Cl)c4C4CC4)ncc23)C1 [Example 252]	10 to 100
C=CC(=O)N1CC[C@@H](N(C)c2nc(OC[C@@]34CCCN3C[C@H](F)C4)nc3c(F)c(-c4nc(N)ccc4F)ncc23)C1 [Example 96, 1-((R)-3-((7-(6-amino-3-fluoropyridin-2-yl)-8-fluoro-2-(((2R,7aS)-2-fluorotetrahydro-1H-pyrrolizin-7a(5H)-yl)methoxy)pyrido[4,3-d]pyrimidin-4-yl)(methyl)amino)pyrrolidin-1-yl)prop-2-en-1-one]	≥ 500

Other lines, results leading:

IC50 [nM]	SMILES
< 10	CN(c1nc(OC[C@@]23CCCN2C[C@H](F)C3)nc2c(F)c(-c3nc(N)cc4cccc(F)c34)ncc12)[C@@H]1CCN(C(=O)/C=C/c2nc(C(C)(F)F)no2)C1 [Example 92]
≥ 500	C=CC(=O)N1CC(CN(C)c2nc(OCC34CCCN3CCC4)nc3c2CC(C)C(c2nc(N)cc(C)c2C(F)(F)F)C3)C1 (centres unmarked) [Example 207]
10 to 100	C=CC(=O)N1CC[C@@H](N(C)c2nc(OC[C@@]34CCCN3C[C@H](F)C4)nc3c(F)c(-c4cc(N)nc(C)c4C(F)(F)F)ncc23)C1 [Example 107, 1-((R)-3-((7-(6-amino-2-methyl-3-(trifluoromethyl)pyridin-4-yl)-8-fluoro-2-(((2R,7aS)-2-fluorotetrahydro-1H-pyrrolizin-7a(5H)-yl)methoxy)pyrido[4,3-d]pyrimidin-4-yl)(methyl)amino)pyrrolidin-1-yl)prop-2-en-1-one]
< 10	CN1CC[C@@H]1/C=C/C(=O)N1CC[C@@H](N(C)c2nc(OC[C@@]34CCCN3C[C@H](F)C4)nc3c(F)c(-c4nc(N)cc5cccc(F)c45)ncc23)C1 (single isomer, unassigned) [Example 7]
100 to 500	C=CC(=O)N1CC[C@@H](N(C)c2nc(OCC34CCCN3CCC4)nc3c(F)c(-c4nc(N)cc5cccc(Cl)c45)ncc23)C1 [Example 69, (R)-1-(3-((7-(3-amino-8-chloroisoquinolin-1-yl)-8-fluoro-2-((hexahydro-1H-pyrrolizin-7a-yl)methoxy)pyrido[4,3-d]pyrimidin-4-yl)(methyl)amino)pyrrolidin-1-yl)prop-2-en-1-one]
≥ 500	C=CC(=O)N1CC[C@@H](N(C)c2nc(OC[C@@]34CCCN3C[C@H](F)C4)nc3c(F)c(-c4nccc5cccc(Cl)c45)ncc23)C1 [Example 209]
100 to 500	Cc1ncc(F)c(/C=C/C(=O)N2CC[C@@H](N(C)c3nc(OC[C@@]45CCCN4C[C@H](F)C5)nc4c(F)c(-c5cccc(Cl)c5C5CC5)ncc34)C2)n1 [Example 258]
10 to 100	CO[C@H]1CCN(C/C=C/C(=O)N2CC[C@@H](N(C)c3nc(OC[C@@]45CCCN4C[C@H](F)C5)nc4c(F)c(-c5cccc(Cl)c5C5CC5)ncc34)C2)C1 [Example 210]
10 to 100	C=CC(=O)N1CC[C@@H](N(C)c2nc(OC[C@@]34CCCN3C[C@H](F)C4)nc3c(F)c(-c4c(Cl)c(C)cc5[nH]ncc45)ncc23)C1 [Example 194]
≥ 500	C=CC(=O)N1CC[C@@H](N(C)c2nc(OC[C@@]34CCCN3C[C@H](F)C4)nc3c(F)c(-c4cccn5cncc45)ncc23)C1 [Example 219]
